From PubChem BioAssay AID1918940 (Molecular Pharmacology Branch, DTP, NCI, 2023)

Tested on: NCI-H211 complex spheroid viability
Assay: Anticancer human tumor NCI-H211 cell line growth inhibition [LSD1];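 also: luminescent viability read after seven days of drug exposure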;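 as to viability, T/C: 100% = DMSO vehicle control viability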
Conditions: for IC50: curve of first compound; for viability, T/C: stronger effect = lower value
Description: Multicellular complex tumor spheroid response to LSD1 Inhibitor Iadademstat in combination with a variety of drugs and investigational agents in selected tumor cell lines
The current study was undertaken to assess response to LSD1 inhibitors in combination with standard-of-care drugs and investigational agents in solid tumor complex spheroid models as well as in the K-562 leukemia. Complex spheroids include a stromal component modeled by human endothelial cells (HUVEC) and fibroblasts modeled by human mesenchymal stem cells (MSCs). The concentration ranges selected for each drug and investigational agent were based upon clinically achievable concentrations if the clinical Cmax of the agent was known.
Compounds. The drugs and investigational agents used in this study are listed on Table 1. All of the agents used, including staurosporine (NSC755774) and gemcitabine (NSC613327), were obtained from the Developmental Therapeutics Program, NCI. FDA-approved anticancer drugs are available from the NCI at http://dtp.nci.nih.gov/branches/dscb/oncology_drugset_explanation.html. Drugs and investigational agents were >95% pure by proton nuclear magnetic resonance (NMR) and liquid chromatography/mass spectrometry (LC/MS). Stock solutions were prepared at 400x in DMSO, stored at -70 degrees C, and diluted in fresh medium prior to their use. The final concentration of DMSO in cell culture wells never exceeded 0.25% (v/v). The FDA-approved anticancer drug set is available from the Developmental Therapeutics Program at https://dtp.cancer.gov/organization/dscb/obtaining/available_plates.htm. All drugs and investigational agents were tested over a range starting from a high concentration at or near the clinical Cmax and decreasing in half-log increments. If the clinical Cmax for an agent had not been determined, the highest concentration tested was 10 microM.
Cell Lines. The patient-derived cancer cell (PDC) lines: 292921-168-R-J2-PDC, K24384-001-R-PDC, and 521955-158-R2-J5-PDC pancreatic carcinomas, 556581-035-R-J1 ovarian carcinoma, 324938-238-R-J1-PDC, 855422-203-R-J1-PDC and 883617-216-R-J1-PDC urothelial bladder carcinomas, 743489-274-T-PDC renal cell carcinoma, 138582-R-J1 Merkel cell tumor, K60290-347-R-J1 and K57222-313-R-J1-PDC glioblastomas, 653999-131-R-J2-PDC, LG0703-F948-PDC, and 349418-098-R-PDC non-small cell lung carcinomas, 885512-296-R-J2-PDC, 171881-019-R-J1-PDC breast carcinomas and 186277-243-T-J2-PDC and 233499-124-R-J2-PDC colon carcinomas were obtained from the NCI Patient-Derived Models Repository (PDMR, https://pdmr.cancer.gov). The established cell lines NCI/ADR-RES (RRID:CVCL_14520 and OVCAR-5 (RRID:CVCL_1628) ovarian carcinomas, 786-O (RRID:CVCL_1051) and A498 (RRID:CVCL_A498) renal cell carcinoma, NCI-H211 (ATCC, cat. CRL-5824; RRID:CVCL_1529), NCI-H196 (ATCC, cat. CRL-5823, RRID:CVCL_1509), SW 1271 (ATCC, cat. CRL-2177, RRID:CVCL_1716) and NCI-H1876 (ATCC, cat. CRL-5902, RRID:CVCL_1503) small cell lung carcinomas, MDA-MB-231 (RRID:CVCL_0062) and MDA-MB-468 (RRID:CVCL_0419)breast carcinomas (10-12). Pooled donor human umbilical vein endothelial cells (HUVEC, Lonza, cat. CC-2519) and human mesenchymal stem cells (hMSC, Lonza, cat. PT-2501) were purchased from Lonza (Walkersville, MD).
Cell Culture. All cells were maintained in an incubator at 37 degrees C and 5% CO2 with 95% humidity. The PDC lines were cultured according to standard operating procedures established by the NCI PDMR (https://pdmr.cancer.gov). Briefly all PDCs were thawed and cultured in Matrigel-coated flasks prepared with a working solution of 1X Ham's F-12 nutrient mix, without supplementation (Invitrogen, Waltham, MA, cat. 11765054), 100 U/mL penicillin-streptomycin (Invitrogen, cat. 15140122), and 2.5% Matrigel (Corning Inc., Corning, NY, cat. 354248) for the first three passages. […]

## CC[C@@]1(O)C(=O)OCc2c1cc1n(c2=O)Cc2cc3c(CN(C)C)c(O)ccc3nc2-1 + NC1CC1c1ccc(-c2cccc(O)c2)cc1
Second compound 0.1 µM
  IC50: 0.472 nM
Second compound 0.316 µM
  IC50: 0.4 nM
Second compound 1 µM
  IC50: 0.333 nM
Second compound 3.16 µM
  IC50: < 0.316 nM
Second compound 10 µM
  IC50: < 0.316 nM
Second compound 0.1 µM, first compound 0.000316 µM
  viability, T/C: 69.9%
Second compound 0.1 µM, first compound 0.001 µM
  viability, T/C: 12.8%
Second compound 0.1 µM, first compound 0.00316 µM
  viability, T/C: 4.7%
Second compound 0.1 µM, first compound 0.01 µM
  viability, T/C: 4.95%
Second compound 0.1 µM, first compound 0.0316 µM
  viability, T/C: 3.81%
Second compound 0.1 µM, first compound 0.1 µM
  viability, T/C: 2.69%
Second compound 0.316 µM, first compound 0.000316 µM
  viability, T/C: 60%
Second compound 0.316 µM, first compound 0.001 µM
  viability, T/C: 12%
Second compound 0.316 µM, first compound 0.00316 µM
  viability, T/C: 6.18%
Second compound 0.316 µM, first compound 0.01 µM
  viability, T/C: 4.37%
Second compound 0.316 µM, first compound 0.0316 µM
  viability, T/C: 4.53%
Second compound 0.316 µM, first compound 0.1 µM
  viability, T/C: 2.25%
Second compound 1 µM, first compound 0.000316 µM
  viability, T/C: 51.9%
Second compound 1 µM, first compound 0.001 µM
  viability, T/C: 11.9%
Second compound 1 µM, first compound 0.00316 µM
  viability, T/C: 5.4%
Second compound 1 µM, first compound 0.01 µM
  viability, T/C: 3.69%
Second compound 1 µM, first compound 0.0316 µM
  viability, T/C: 4.13%
Second compound 1 µM, first compound 0.1 µM
  viability, T/C: 3.19%
Second compound 3.16 µM, first compound 0.000316 µM
  viability, T/C: 38.7%
Second compound 3.16 µM, first compound 0.001 µM
  viability, T/C: 11.8%
Second compound 3.16 µM, first compound 0.00316 µM
  viability, T/C: 5.33%
Second compound 3.16 µM, first compound 0.01 µM
  viability, T/C: 5.16%
Second compound 3.16 µM, first compound 0.0316 µM
  viability, T/C: 5.02%
Second compound 3.16 µM, first compound 0.1 µM
  viability, T/C: 2.67%
Second compound 10 µM, first compound 0.000316 µM
  viability, T/C: 44.5%
Second compound 10 µM, first compound 0.001 µM
  viability, T/C: 15.3%
Second compound 10 µM, first compound 0.00316 µM
  viability, T/C: 4.98%
Second compound 10 µM, first compound 0.01 µM
  viability, T/C: 5.88%
Second compound 10 µM, first compound 0.0316 µM
  viability, T/C: 5.04%
Second compound 10 µM, first compound 0.1 µM
  viability, T/C: 2.36%
